Holding throughout (type): biochemical
Test [1] concerns the target T1, circulating FAPα from human plasma (Homo sapiens, UniProt Q12884).
T1 construct: from tissue; host or cells: human plasma (EDTA-K2)
T1 sequence (Q12884 24-760 limits assumed): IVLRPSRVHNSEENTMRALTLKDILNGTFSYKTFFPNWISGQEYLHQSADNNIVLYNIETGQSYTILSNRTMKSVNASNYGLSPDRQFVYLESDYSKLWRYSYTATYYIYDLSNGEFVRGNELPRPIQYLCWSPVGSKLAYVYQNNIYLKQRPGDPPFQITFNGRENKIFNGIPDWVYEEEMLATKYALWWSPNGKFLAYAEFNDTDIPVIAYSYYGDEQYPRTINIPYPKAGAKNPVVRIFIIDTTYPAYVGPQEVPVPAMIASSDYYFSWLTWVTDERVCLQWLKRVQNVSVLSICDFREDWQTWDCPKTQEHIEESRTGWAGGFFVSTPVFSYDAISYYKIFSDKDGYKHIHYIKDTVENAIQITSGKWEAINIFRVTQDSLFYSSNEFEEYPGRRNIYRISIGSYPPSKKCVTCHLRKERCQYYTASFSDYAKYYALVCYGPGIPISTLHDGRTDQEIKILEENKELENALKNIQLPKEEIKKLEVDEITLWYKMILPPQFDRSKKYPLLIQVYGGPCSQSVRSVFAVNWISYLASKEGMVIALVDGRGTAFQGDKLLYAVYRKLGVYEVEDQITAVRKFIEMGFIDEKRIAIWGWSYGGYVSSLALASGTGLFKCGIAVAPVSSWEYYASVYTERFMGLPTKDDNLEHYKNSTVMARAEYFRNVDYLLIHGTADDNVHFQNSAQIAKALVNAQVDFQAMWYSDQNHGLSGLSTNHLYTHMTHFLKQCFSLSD
In words: Ex vivo inhibition of circulating FAPα activity from human plasma. As to the method:
Human blood was obtained from healthy young volunteers. Blood samples were collected in tubes coated with EDTA-K2 by venipuncture method, mixed gently, then kept on ice and centrifuged at 2,500×g for 15 minutes at 4° C. After plasma separation, samples were stored at −80° C. in aliquots of 300 μL. […] Exemplary compounds were allowed to interact with the enzyme for 15 minutes at 37° C. After pre-incubation, 50 μl of 200 μM PRXS-AMC substrate were added to the all mixtures. All reactions were carried out for 1 h at 37° C. protected from light. AMC release was detected measuring fluorescence at an excitation/emission wavelength of 380/460 nm using a Multifunction Microplate Reader. All measurements were carried out as single point.

Test [2] concerns the target T2, mouse plasma DPPIV (Mus musculus, UniProt P28843).
T2 construct: from tissue; host or cells: mouse plasma (C57BL/6, EDTA)
In words: DPPIV enzymatic activity in mouse plasma. Particulars: C57BL/6 mouse plasma; H-Gly-Pro-AMC substrate. How it is done: Approximately 500 μL of whole blood from one C57BL/6 mouse was harvested into BD Microtainer® tubes (K2) EDTA (#365974, Becton Dickinson and Co.) via terminal cardiac puncture. The blood sample was immediately centrifuged at approximately 9000 g at 4° C. for 5 minutes. Plasma was separated and stored at −80° C. in aliquots of 300 μL. To assay baseline DPPIV enzymatic exopeptidase activity, 5 μL of thawed, mouse plasma was diluted (1:5) in buffer (100 mM Tris-HCl, 400 mM NaCl, 50 mM salicylic acid, 1 mM EDTA, pH 7.5) and mixed with 35 µL of the same buffer before being pre-incubated with different concentrations of 10 μL of test compounds or DMSO vehicle for 15 minutes at 37° C. in 96-well black plates (Nunc, #237108). After pre-incubation, 50 μL of 200 μM dipeptide substrate H-Gly-Pro-AMC (Bachem, #L-1225) was added to the mixture. The assay was performed for 1 hour at 37° C. 7-Amino-4-Methylcoumarin (AMC) release was detected measuring fluorescence at an excitation wavelength of 360 nm and an emission wavelength of 460 nm using a Multifunction Microplate Reader (Synergy 4, Biotek). All measurements were carried out at least in duplicate.

Test [3] addresses T3, recombinant human DPPIV (rhDPPIV) (Homo sapiens, UniProt P27487).
T3 construct: purchased R&S system (so in the source)
In words: DPPIV enzymatic activity assay. The settings on record: H-Gly-Pro-pNA substrate.

The target of test [4] is T4, recombinant human DPP9 (rhDPP9) (Homo sapiens, UniProt Q86TI2).
T4 construct: purchased R&S system (so in the source)
In words: DPP9 enzymatic activity assay. The settings on record: H-Gly-Pro-AMC substrate. How it is done: 7-Amino-4-Methylcoumarin (AMC) release was detected by measuring fluorescence at Ex/Em 380/460 nm using a Multifunction Microplate Reader (Synergy 4, Biotek). All measurements were carried out in triplicate.

The target in test [5] is T5, recombinant human FAPα (rhFAPα) (Homo sapiens, UniProt Q12884).
T5 construct: purchased R&S system (so in the source)
T5 sequence (Q12884 1-760): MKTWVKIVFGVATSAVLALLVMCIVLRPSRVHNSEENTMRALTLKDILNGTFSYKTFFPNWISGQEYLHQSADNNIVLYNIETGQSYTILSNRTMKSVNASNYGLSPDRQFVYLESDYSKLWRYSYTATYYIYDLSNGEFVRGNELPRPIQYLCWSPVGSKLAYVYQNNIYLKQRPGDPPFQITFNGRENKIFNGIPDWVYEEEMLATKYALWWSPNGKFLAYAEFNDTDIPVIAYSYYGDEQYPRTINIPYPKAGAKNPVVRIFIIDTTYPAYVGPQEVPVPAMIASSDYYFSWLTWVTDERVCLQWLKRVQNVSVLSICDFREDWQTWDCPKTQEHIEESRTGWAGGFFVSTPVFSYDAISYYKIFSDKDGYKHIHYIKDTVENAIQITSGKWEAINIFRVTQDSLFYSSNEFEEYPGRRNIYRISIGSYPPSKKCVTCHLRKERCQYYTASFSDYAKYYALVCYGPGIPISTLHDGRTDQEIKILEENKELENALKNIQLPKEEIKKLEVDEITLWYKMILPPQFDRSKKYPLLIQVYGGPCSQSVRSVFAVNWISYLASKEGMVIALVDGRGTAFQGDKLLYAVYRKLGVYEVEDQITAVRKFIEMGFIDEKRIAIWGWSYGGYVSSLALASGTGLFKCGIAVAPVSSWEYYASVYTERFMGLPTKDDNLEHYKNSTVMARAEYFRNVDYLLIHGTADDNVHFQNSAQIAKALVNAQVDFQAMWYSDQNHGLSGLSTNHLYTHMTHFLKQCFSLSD
In words: FAPα enzymatic exopeptidase (dipeptidase) activity assay. Particulars: for inhibition at 1 µM: read-out: rhFAPα (% exo inh @ 1 μM).

[6] abbreviates: human plasma, PRXS-AMC substrate, read-out: FAPα activity in human plasma (PRXS-AMC) IC50.
The mark [7] stands for this setting: Table 2, exopeptidase, Z-Gly-Pro-AMC, read-out: rhFAPα (exo IC50).
Setting [8] is: Table 3, exopeptidase, read-out: rhFAPα (exo IC50).
Where [9] appears, read: 1 μM test compound, Z-Gly-Pro-AMC substrate.

Read-outs that look alike come from different tables or passages of the source.

T4 sequence (Q86TI2 whole entry): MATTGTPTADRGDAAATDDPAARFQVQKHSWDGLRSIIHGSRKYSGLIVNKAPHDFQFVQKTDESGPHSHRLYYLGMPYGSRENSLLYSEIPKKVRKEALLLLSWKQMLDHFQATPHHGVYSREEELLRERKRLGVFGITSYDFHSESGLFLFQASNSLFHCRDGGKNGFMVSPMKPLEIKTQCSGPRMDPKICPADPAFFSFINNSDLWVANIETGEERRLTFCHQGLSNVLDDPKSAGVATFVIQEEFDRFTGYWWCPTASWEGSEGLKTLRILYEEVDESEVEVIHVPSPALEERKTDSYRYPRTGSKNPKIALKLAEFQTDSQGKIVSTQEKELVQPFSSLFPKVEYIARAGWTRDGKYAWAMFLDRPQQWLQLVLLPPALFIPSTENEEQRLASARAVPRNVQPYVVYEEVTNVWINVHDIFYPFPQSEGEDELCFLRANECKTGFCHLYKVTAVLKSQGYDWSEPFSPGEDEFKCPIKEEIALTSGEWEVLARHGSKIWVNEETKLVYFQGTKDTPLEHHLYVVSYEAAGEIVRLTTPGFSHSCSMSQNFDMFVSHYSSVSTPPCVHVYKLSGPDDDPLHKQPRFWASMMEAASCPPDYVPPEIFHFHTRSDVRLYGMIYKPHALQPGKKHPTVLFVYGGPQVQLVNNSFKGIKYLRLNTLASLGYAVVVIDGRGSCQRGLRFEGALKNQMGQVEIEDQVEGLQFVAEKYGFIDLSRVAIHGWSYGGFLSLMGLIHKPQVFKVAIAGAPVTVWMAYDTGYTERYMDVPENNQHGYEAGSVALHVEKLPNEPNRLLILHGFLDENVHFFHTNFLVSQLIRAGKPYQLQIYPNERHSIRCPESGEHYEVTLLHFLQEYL
T3 sequence (P27487 whole entry): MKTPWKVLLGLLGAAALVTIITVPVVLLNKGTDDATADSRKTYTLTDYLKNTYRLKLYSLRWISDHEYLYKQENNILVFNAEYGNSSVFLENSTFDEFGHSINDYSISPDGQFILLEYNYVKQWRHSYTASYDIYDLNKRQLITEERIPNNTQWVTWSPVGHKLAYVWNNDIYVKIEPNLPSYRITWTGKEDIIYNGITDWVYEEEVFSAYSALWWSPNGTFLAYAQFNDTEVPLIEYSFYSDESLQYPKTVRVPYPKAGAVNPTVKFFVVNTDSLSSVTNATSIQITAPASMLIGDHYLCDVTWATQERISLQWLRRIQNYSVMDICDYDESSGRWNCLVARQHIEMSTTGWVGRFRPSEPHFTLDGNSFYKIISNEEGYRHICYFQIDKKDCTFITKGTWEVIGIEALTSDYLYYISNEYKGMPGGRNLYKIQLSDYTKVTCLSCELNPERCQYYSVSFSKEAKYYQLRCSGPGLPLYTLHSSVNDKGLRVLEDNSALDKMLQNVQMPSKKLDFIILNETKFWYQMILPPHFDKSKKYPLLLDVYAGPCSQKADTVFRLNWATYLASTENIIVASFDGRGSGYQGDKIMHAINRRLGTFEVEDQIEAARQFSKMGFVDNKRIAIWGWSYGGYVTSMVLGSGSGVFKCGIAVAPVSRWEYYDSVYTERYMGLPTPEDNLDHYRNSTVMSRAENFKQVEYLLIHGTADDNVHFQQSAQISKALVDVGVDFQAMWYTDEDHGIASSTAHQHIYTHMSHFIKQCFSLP
T2 sequence (P28843 37-760 limits assumed): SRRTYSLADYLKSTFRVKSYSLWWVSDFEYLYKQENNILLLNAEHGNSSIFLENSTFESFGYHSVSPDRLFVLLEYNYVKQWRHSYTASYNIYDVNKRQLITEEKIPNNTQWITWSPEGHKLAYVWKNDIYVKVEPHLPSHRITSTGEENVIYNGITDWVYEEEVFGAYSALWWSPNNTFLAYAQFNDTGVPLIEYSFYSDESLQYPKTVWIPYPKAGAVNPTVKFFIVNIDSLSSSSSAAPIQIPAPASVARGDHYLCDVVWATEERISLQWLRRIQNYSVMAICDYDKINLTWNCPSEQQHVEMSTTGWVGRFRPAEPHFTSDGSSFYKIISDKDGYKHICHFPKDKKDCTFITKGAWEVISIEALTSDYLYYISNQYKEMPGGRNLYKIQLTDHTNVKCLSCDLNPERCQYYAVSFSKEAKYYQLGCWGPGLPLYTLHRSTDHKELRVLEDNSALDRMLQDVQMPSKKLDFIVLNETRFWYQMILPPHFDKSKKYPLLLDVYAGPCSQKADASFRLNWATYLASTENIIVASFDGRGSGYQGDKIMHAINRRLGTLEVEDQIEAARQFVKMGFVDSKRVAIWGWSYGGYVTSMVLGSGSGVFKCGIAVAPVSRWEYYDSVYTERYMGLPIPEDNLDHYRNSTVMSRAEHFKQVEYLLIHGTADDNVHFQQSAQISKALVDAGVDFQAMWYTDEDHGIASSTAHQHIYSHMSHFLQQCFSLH

As for `N#C[C@@H]1CC(F)(F)CN1C(=O)CNC(=O)c1c[nH]c(=O)cc1-c1ccc(F)cc1` [Compound 109, (S)—N-(2-(2-cyano-4,4-difluoropyrrolidin-1-yl)-2-oxoethyl)-4-(4-fluorophenyl)-6-oxo-1,6-dihydropyridine-3-carboxamide], the IC50 in test [1] (setting [6]) was < 1000 nM; in test [2], 1 to 10 µM; in test [3], 1 to 10 µM; in test [4] it was 1 to 10 µM; in test [5] (setting [7]) it was < 1000 nM; in test [5] (setting [8]), < 1000 nM. Also, in test [5], the inhibition at 1 µM was > 50%.
In the case of `N#C[C@@H]1CC(F)(F)CN1C(=O)CNC(=O)c1ccncc1-c1ccccc1` [Compound 13, (S)—N-(2-(2-cyano-4,4-difluoropyrrolidin-1-yl)-2-oxoethyl)-3-phenylisonicotinamide], the half-inhibitory concentration (IC50) was < 1000 nM in test [1] (setting [6]); > 10 µM in test [2]; > 10 µM in test [3]; 1 to 10 µM in test [4]; < 1000 nM in test [5] (setting [7]); < 1000 nM in test [5] (setting [8]). Further, the inhibition at 1 µM in test [5] is > 50%.
Consider `Cn1ncc2c(-c3cnccc3C(=O)NCC(=O)N3CC(F)(F)C[C@H]3C#N)cccc21` [Compound 87, (S)—N-(2-(2-cyano-4,4-difluoropyrrolidin-1-yl)-2-oxoethyl)-3-(1-methyl-1H-indazol-4-yl)isonicotinamide], for which the IC50 in test [1] (setting [6]) was < 1000 nM; in test [2] it was 1 to 10 µM; in test [3], > 10 µM; in test [4], > 10 µM; in test [5] (setting [7]), < 1000 nM; in test [5] (setting [8]), < 1000 nM. In addition, the inhibition at 1 µM in test [5] (setting [9]) was > 50%.
On to `N#C[C@@H]1CC(F)(F)CN1C(=O)CNC(=O)c1ccncc1C1CC1` [Compound 24, (S)—N-(2-(2-cyano-4,4-difluoropyrrolidin-1-yl)-2-oxoethyl)-3-cyclopropylisonicotinamide], for which the IC50 was < 1000 nM in test [1] (setting [6]); > 10 µM in test [2]; > 10 µM in test [3]; 1 to 10 µM in test [4]; < 1000 nM in test [5] (setting [7]); < 1000 nM in test [5] (setting [8]). Besides, in test [5], the inhibition at 1 µM is > 50%.
In the case of `C=Cc1cnccc1C(=O)NCC(=O)N1CC(F)(F)C[C@H]1C#N` [Compound 40, (S)—N-(2-(2-cyano-4,4-difluoropyrrolidin-1-yl)-2-oxoethyl)-3-vinylisonicotinamide], the IC50 in test [1] (setting [6]) was < 1000 nM; in test [2] it was > 10 µM; in test [3], > 10 µM; in test [4], > 10 µM; in test [5] (setting [7]), < 1000 nM; in test [5] (setting [8]), < 1000 nM. The inhibition at 1 µM in test [5] (setting [9]) is > 50%.
Turning to `N#C[C@@H]1CC(F)(F)CN1C(=O)CNC(=O)c1c[nH]c(=O)c2ccccc12` [Example 1, (S)—N-(2-(2-cyano-4,4-difluoropyrrolidin-1-yl)-2-oxoethyl)-1-oxo-1,2-dihydroisoquinoline-4-carboxamide], the IC50 in test [1] (setting [6]) is < 1000 nM; in test [2], < 1 µM; in test [3], 1 to 10 µM; in test [4] it was 1 to 10 µM; in test [5] (setting [7]) it was < 1000 nM; in test [5] (setting [8]), < 1000 nM.
In the case of `N#C[C@@H]1CC(F)(F)CN1C(=O)CNC(=O)c1c[nH]c(=O)c(-c2ccccc2)c1` [Compound 14, (S)—N-(2-(2-cyano-4,4-difluoropyrrolidin-1-yl)-2-oxoethyl)-6-oxo-5-phenyl-1,6-dihydropyridine-3-carboxamide], the half-inhibitory concentration (IC50) in test [1] (setting [6]) is < 1000 nM; in test [2], 1 to 10 µM; in test [3], > 10 µM; in test [4], 1 to 10 µM; in test [5] (setting [7]), < 1000 nM; in test [5] (setting [8]), < 1000 nM. Further, the inhibition at 1 µM in test [5] (setting [9]) was > 50%.
Regarding `N#C[C@@H]1CC(F)(F)CN1C(=O)CNC(=O)c1ccncc1Cc1ccccc1` [Compound 50, (S)-3-benzyl-N-(2-(2-cyano-4,4-difluoropyrrolidin-1-yl)-2-oxoethyl)isonicotinamide], the IC50 is < 1000 nM in test [1] (setting [6]); > 10 µM in test [3]; < 1 µM in test [4]; < 1000 nM in test [5] (setting [7]); < 1000 nM in test [5] (setting [8]). Also, the inhibition at 1 µM in test [5] (setting [9]) is > 50%.
In the case of `N#C[C@@H]1CC(F)(F)CN1C(=O)CNC(=O)c1ccncc1-c1cc(F)cc(F)c1` [Compound 47, (S)—N-(2-(2-cyano-4,4-difluoropyrrolidin-1-yl)-2-oxoethyl)-3-(3,5-difluorophenyl)isonicotinamide], the IC50 is < 1000 nM in test [1]; > 10 µM in test [2]; > 10 µM in test [3]; > 10 µM in test [4]; < 1000 nM in test [5]; < 1000 nM in test [5] (read-out: rhFAPα (exo IC50), Table 3, exopeptidase). In test [5], the inhibition at 1 µM was > 50%.
Take `N#C[C@@H]1CC(F)(F)CN1C(=O)CNC(=O)c1c[nH]c(=O)c2ccc(F)cc12` [Compound 26, (S)—N-(2-(2-cyano-4,4-difluoropyrrolidin-1-yl)-2-oxoethyl)-6-fluoro-1-oxo-1,2-dihydroisoquinoline-4-carboxamide]: the IC50 was < 1000 nM in test [1] (setting [6]); < 1 µM in test [2]; 1 to 10 µM in test [3]; 1 to 10 µM in test [4]; < 1000 nM in test [5] (setting [7]); < 1000 nM in test [5] (setting [8]). The inhibition at 1 µM in test [5] (setting [9]) was > 50%.
As to `C=C(c1ccccc1)c1cnccc1C(=O)NCC(=O)N1CC(F)(F)C[C@H]1C#N` [Compound 122, (S)—N-(2-(2-cyano-4,4-difluoropyrrolidin-1-yl)-2-oxoethyl)-3-(1-phenylvinyl)isonicotinamide], the IC50 in test [2] was > 10 µM; in test [3] it was > 10 µM; in test [4], > 10 µM; in test [5] (setting [7]), < 1000 nM; in test [5] (setting [8]) it was < 1000 nM. In addition, the inhibition at 1 µM in test [5] was > 50%.

For orientation: IC50 means the concentration that inhibits the measured activity by half.
